For assay [1], the system named is HCV genotype 1a (H77 strain) replicon in HUH-7 cells. In words: HCV replicon luciferase reporter assay, genotype 1a. The note with it: Hepatitis C virus, Huh-7, 72 h, HCV genotype 1a replicon luciferase assay, 3 days incubation, range class, read-out: LE_1a (EC50, range). Type of assay: cell-based. The procedure, abridged:
(§1)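 Replicon inhibition for both genotypes was measured as Renilla luciferase signal (EnduRen, 7.5 μM final, 2 h) after 3-day, 37° C exposure of replicon-bearing HUH-7 cells in 4% FCS DMEM, 0.5% DMSO. The 1b construct carries S1179I; the 1a H77 construct carries P1496L and S2204I. Twenty-point, 3-fold dilutions were fitted four-parametrically for EC50, and CC50 was taken from multiplexed Cell Titer-Blue.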

Assay [2] relates to HCV genotype 1b (Con1) replicon in HUH-7 cells. In words: HCV replicon luciferase reporter assay, genotype 1b. It counts as cell-based. To be noted: Hepatitis C virus, Huh-7, 72 h, HCV genotype 1b replicon luciferase assay, 3 days incubation, range class, read-out: LE_1b (EC50, range). In outline:
as §1

This note sets out measurements from patent US9499550B2 (BRISTOL-MYERS SQUIBB COMPANY, priority 2012, dated 2016).

Take `CC(C)Oc1cc2c(Cl)cccc2c(O[C@@H]2C[C@H]3C(=O)N[C@]4(C(=O)NS(=O)(=O)C5CC5)C[C@H]4/C=C\CC[C@H](C)C[C@@H](C)[C@H](NC(=O)OC(C)(C)C(F)(F)F)C(=O)N3C2)n1` [Compound 1093, 1,1,1-trifluoro-2-methylpropan-2-yl((2R,6S,7R,9S,13aS,14aR,16aS,Z)-2-((5-chloro-3-isopropoxyisoquinolin-1-yl)oxy)-14a-((cyclopropylsulfonyl)carbamoyl)-7,9-dimethyl-5,16-dioxo-1,2,3,5,6,7,8,9,10,11,13a,14,14a,15,16,16a-hexadecahydrocyclopropa[e]pyrrolo[1,2-a][1,4]diazacyclopentadecin-6-yl)carbamate]: the EC50 in assay [1] is 4.82 to 103 nM; in assay [2], below 5.46 nM.

Regarding `CC(C)Oc1cc2c(Cl)cccc2c(O[C@@H]2C[C@H]3C(=O)N[C@]4(C(=O)NS(=O)(=O)C5CC5)C[C@H]4/C=C\CC[C@@H](C)C[C@@H](C)[C@H](NC(=O)OC(C)(C)C(F)(F)F)C(=O)N3C2)n1` [Compound 1094, 1,1,1-trifluoro-2-methylpropan-2-yl((2R,6S,7R,9R,13aS,14aR,16aS,Z)-2-((5-chloro-3-isopropoxyisoquinolin-1-yl)oxy)-14a-((cyclopropylsulfonyl)carbamoyl)-7,9-dimethyl-5,16-dioxo-1,2,3,5,6,7,8,9,10,11,13a,14,14a,15,16,16a-hexadecahydrocyclopropa[e]pyrrolo[1,2-a][1,4]diazacyclopentadecin-6-yl)carbamate], the EC50 in assay [1] and in assay [2] was below 5.46 nM in each case.

For `C[C@H]1CC/C=C\[C@@H]2C[C@@]2(C(=O)NS(=O)(=O)C2CC2)NC(=O)[C@@H]2C[C@@H](Oc3nc(OCC(F)F)cc4c(Cl)cccc34)CN2C(=O)[C@@H](NC(=O)OC(C)(C)C(F)(F)F)[C@H](C)C1` [Compound 1095, 1,1,1-trifluoro-2-methylpropan-2-yl((2R,6S,7R,9S,13aS,14aR,16aS,Z)-2-((5-chloro-3-(2,2-difluoroethoxyl)isoquinolin-1-yl)oxy)-14a-((cyclopropylsulfonyl)carbamoyl)-7,9-dimethyl-5,16-dioxo-1,2,3,5,6,7,8,9,10,11,13a,14,14a,15,16,16a-hexadecahydrocyclopropa[e]pyrrolo[1,2-a][1,4]diazacyclopentadecin-6-yl)carbamate], the EC50 in assay [1] was 4.82 to 103 nM; in assay [2] it was below 5.46 nM.

Regarding `C[C@@H]1CC/C=C\[C@@H]2C[C@@]2(C(=O)NS(=O)(=O)C2CC2)NC(=O)[C@@H]2C[C@@H](Oc3nc(OCC(F)F)cc4c(Cl)cccc34)CN2C(=O)[C@@H](NC(=O)OC(C)(C)C(F)(F)F)[C@H](C)C1` [Compound 1096, 1,1,1-trifluoro-2-methylpropan-2-yl((2R,6S,7R,9R,13aS,14aR,16aS,Z)-2-((5-chloro-3-(2,2-difluoroethoxyl)isoquinolin-1-yl)oxy)-14a-((cyclopropylsulfonyl)carbamoyl)-7,9-dimethyl-5,16-dioxo-1,2,3,5,6,7,8,9,10,11,13a,14,14a,15,16,16a-hexadecahydrocyclopropa[e]pyrrolo[1,2-a][1,4]diazacyclopentadecin-6-yl)carbamate], the half-maximal effective concentration (EC50) in assay [1] and in assay [2] was below 5.46 nM throughout.

As for `C[C@H]1CC/C=C\[C@@H]2C[C@@]2(C(=O)NS(=O)(=O)C2(C)CC2)NC(=O)[C@@H]2C[C@@H](Oc3nc(OCC(F)F)cc4c(Cl)cccc34)CN2C(=O)[C@@H](NC(=O)OC(C)(C)C(F)(F)F)[C@H](C)C1` [Compound 1097, 1,1,1-trifluoro-2-methylpropan-2-yl((2R,6S,7R,9S,13aS,14aR,16aS,Z)-2-((5-chloro-3-(2,2-difluoroethoxyl)isoquinolin-1-yl)oxy)-7,9-dimethyl-14a-(((1-methylcyclopropyl)sulfonyl)carbamoyl)-5,16-dioxo-1,2,3,5,6,7,8,9,10,11,13a,14,14a,15,16,16a-hexadecahydrocyclopropa[e]pyrrolo[1,2-a][1,4]diazacyclopentadecin-6-yl)carbamate], the concentration for a half-maximal effect (EC50) in assay [1] was 4.82 to 103 nM; in assay [2], below 5.46 nM.

As for `C[C@@H]1CC/C=C\[C@@H]2C[C@@]2(C(=O)NS(=O)(=O)C2(C)CC2)NC(=O)[C@@H]2C[C@@H](Oc3nc(OCC(F)F)cc4c(Cl)cccc34)CN2C(=O)[C@@H](NC(=O)OC(C)(C)C(F)(F)F)[C@H](C)C1` [Compound 1098, 1,1,1-trifluoro-2-methylpropan-2-yl((2R,6S,7R,9R,13aS,14aR,16aS,Z)-2-((5-chloro-3-(2,2-difluoroethoxyl)isoquinolin-1-yl)oxy)-7,9-dimethyl-14a-(((1-methylcyclopropyl)sulfonyl)carbamoyl)-5,16-dioxo-1,2,3,5,6,7,8,9,10,11,13a,14,14a,15,16,16a-hexadecahydrocyclopropa[e]pyrrolo[1,2-a][1,4]diazacyclopentadecin-6-yl)carbamate], the concentration giving a half-maximal response (EC50) in assay [1] and in assay [2] was below 5.46 nM in each case.

`C[C@H]1CC/C=C\[C@@H]2C[C@@]2(C(=O)NS(=O)(=O)C2CC2)NC(=O)[C@@H]2C[C@@H](Oc3nc(OCC(F)F)cc4c(Cl)cccc34)CN2C(=O)[C@@H](NC(=O)O[C@H](C)C(F)(F)F)[C@H](C)C1` [Compound 1099, (R)-1,1,1-trifluoropropan-2-yl ((2R,6S,7R,9S,13aS,14aR,16aS,Z)-2-((5-chloro-3-(2,2-difluoroethoxyl)isoquinolin-1-yl)oxy)-14a-((cyclopropylsulfonyl)carbamoyl)-7,9-dimethyl-5,16-dioxo-1,2,3,5,6,7,8,9,10,11,13a,14,14a,15,16,16a-hexadecahydrocyclopropa[e]pyrrolo[1,2-a][1,4]diazacyclopentadecin-6-yl)carbamate]: the EC50 in assay [1] and in assay [2] was below 5.46 nM throughout.

Consider `C[C@@H]1CC/C=C\[C@@H]2C[C@@]2(C(=O)NS(=O)(=O)C2CC2)NC(=O)[C@@H]2C[C@@H](Oc3nc(OCC(F)F)cc4c(Cl)cccc34)CN2C(=O)[C@@H](NC(=O)O[C@H](C)C(F)(F)F)[C@H](C)C1` [Compound 1100, (R)-1,1,1-trifluoropropan-2-yl ((2R,6S,7R,9R,13aS,14aR,16aS,Z)-2-((5-chloro-3-(2,2-difluoroethoxyl)isoquinolin-1-yl)oxy)-14a-((cyclopropylsulfonyl)carbamoyl)-7,9-dimethyl-5,16-dioxo-1,2,3,5,6,7,8,9,10,11,13a,14,14a,15,16,16a-hexadecahydrocyclopropa[e]pyrrolo[1,2-a][1,4]diazacyclopentadecin-6-yl)carbamate], for which the EC50 in assay [1] and in assay [2] was below 5.46 nM throughout.

`CC(C)Oc1cc2c(Cl)cccc2c(O[C@@H]2C[C@H]3C(=O)N[C@]4(C(=O)NS(=O)(=O)C5(C)CC5)C[C@H]4/C=C\CC[C@H](C)C[C@@H](C)[C@H](NC(=O)OC(C)(C)C(F)(F)F)C(=O)N3C2)n1` [Compound 1101, 1,1,1-trifluoro-2-methylpropan-2-yl((2R,6S,7R,9S,13aS,14aR,16aS,Z)-2-((5-chloro-3-isopropoxyisoquinolin-1-yl)oxy)-7,9-dimethyl-14a-(((1-methylcyclopropyl)sulfonyl)carbamoyl)-5,16-dioxo-1,2,3,5,6,7,8,9,10,11,13a,14,14a,15,16,16a-hexadecahydrocyclopropa[e]pyrrolo[1,2-a][1,4]diazacyclopentadecin-6-yl)carbamate]: the EC50 in assay [1] and in assay [2] was 4.82 to 103 nM in each case.

With `CC(C)Oc1cc2c(Cl)cccc2c(O[C@@H]2C[C@H]3C(=O)N[C@]4(C(=O)NS(=O)(=O)C5(C)CC5)C[C@H]4/C=C\CC[C@@H](C)C[C@@H](C)[C@H](NC(=O)OC(C)(C)C(F)(F)F)C(=O)N3C2)n1` [Compound 1102, 1,1,1-trifluoro-2-methylpropan-2-yl((2R,6S,7R,9R,13aS,14aR,16aS,Z)-2-((5-chloro-3-isopropoxyisoquinolin-1-yl)oxy)-7,9-dimethyl-14a-(((1-methylcyclopropyl)sulfonyl)carbamoyl)-5,16-dioxo-1,2,3,5,6,7,8,9,10,11,13a,14,14a,15,16,16a-hexadecahydrocyclopropa[e]pyrrolo[1,2-a][1,4]diazacyclopentadecin-6-yl)carbamate], the EC50 in assay [1] and in assay [2] was below 5.46 nM each time.

On to `CC(C)Oc1cc2c(Cl)cccc2c(O[C@@H]2C[C@H]3C(=O)N[C@]4(C(=O)NS(=O)(=O)C5(C)CC5)C[C@H]4/C=C\CC[C@H](C)C[C@@H](C)[C@H](NC(=O)OC(C)(C)C(C)(F)F)C(=O)N3C2)n1` [Compound 1103, 3,3-difluoro-2-methylbutan-2-yl((2R,6S,7R,9S,13aS,14aR,16aS,Z)-2-((5-chloro-3-isopropoxyisoquinolin-1-yl)oxy)-7,9-dimethyl-14a-(((1-methylcyclopropyl)sulfonyl)carbamoyl)-5,16-dioxo-1,2,3,5,6,7,8,9,10,11,13a,14,14a,15,16,16a-hexadecahydrocyclopropa[e]pyrrolo[1,2-a][1,4]diazacyclopentadecin-6-yl)carbamate], for which the EC50 in assay [1] was 4.82 to 103 nM; in assay [2], below 5.46 nM.

`CC(C)Oc1cc2c(Cl)cccc2c(O[C@@H]2C[C@H]3C(=O)N[C@]4(C(=O)NS(=O)(=O)C5(C)CC5)C[C@H]4/C=C\CC[C@@H](C)C[C@@H](C)[C@H](NC(=O)OC(C)(C)C(C)(F)F)C(=O)N3C2)n1` [Compound 1104, 3,3-difluoro-2-methylbutan-2-yl((2R,6S,7R,9R,13aS,14aR,16aS,Z)-2-((5-chloro-3-isopropoxyisoquinolin-1-yl)oxy)-7,9-dimethyl-14a-(((1-methylcyclopropyl)sulfonyl)carbamoyl)-5,16-dioxo-1,2,3,5,6,7,8,9,10,11,13a,14,14a,15,16,16a-hexadecahydrocyclopropa[e]pyrrolo[1,2-a][1,4]diazacyclopentadecin-6-yl)carbamate]: the EC50 in assay [1] and in assay [2] was below 5.46 nM each time.

The EC50 is the concentration at which the effect is half-maximal.
